One test deals with GST-PPARG-LBD (Homo sapiens (Human), UniProt P37231). Kind of test: Lanthascreen PPARG competitive binding assay (Invitrogen, TR-FRET). The conditions noted are these: NA = not active, inc = incomplete curve, read-out: IC50 (nM) Lantha. In outline:
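TR-FRET competitive binding of GST-PPARG-LBD with 5 nM Tb-GST-antibody and 5 nM Fluormone Pan-PPAR Green tracer, in TR-FRET buffer C. Compound serially diluted from 10 μM, 2 h dark incubation, in triplicate. Readout is 520/490 nm emission ratio (340 nm excitation), expressed as fold change over 2% DMSO control.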

Test [1] has as its target Gal-4-PPAR (human PPAR LBD fused to GAL4 DNA-binding domain) (Homo sapiens (Human), UniProt P37231). Put plainly: GAL4-PPARG LBD / UAS-luciferase transactivation assay in HEK 293T cells. It is filed as cell-based.
Setting [2] is: Lanthascreen competitive binding.
Where [3] appears, read: HEK-293T, 18 h; read-out: % transactivation at 10 μM (GAL4).
Setting [4] is: GAL4 transactivation, HEK 293T cells; NA = not active; read-out: EC50 (nM) GAL4.
The mark [5] stands for this setting: HEK-293T, 18 h, read-out: % transactivation at 10 μM (GAL4).
Setting [6] is: Lanthascreen PPARG competitive binding.
The mark [7] stands for this setting: GAL4 transactivation; read-out: EC50 (nM) GAL4.

Where two headings read alike, the source gives them in different places.

Sequence of Gal-4-PPAR (human PPAR LBD fused to GAL4 DNA-binding domain) (P37231 238-503): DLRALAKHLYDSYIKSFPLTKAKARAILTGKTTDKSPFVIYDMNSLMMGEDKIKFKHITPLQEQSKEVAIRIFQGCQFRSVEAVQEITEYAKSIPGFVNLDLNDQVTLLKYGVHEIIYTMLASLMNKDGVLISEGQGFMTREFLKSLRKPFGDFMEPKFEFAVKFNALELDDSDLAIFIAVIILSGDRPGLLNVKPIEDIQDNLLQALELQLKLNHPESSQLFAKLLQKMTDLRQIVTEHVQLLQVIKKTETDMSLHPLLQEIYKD
Sequence of GST-PPARG-LBD (P37231 238-503): as above

For `Cc1c(C)n(Cc2ccc(-c3ccccc3-c3noc(=O)[nH]3)cc2)c2ccc(C(=O)N[C@@H](C)c3cccc(C(C)C)c3)cc12` [Example 244, (S)—N-(1-(3-isopropylphenyl)ethyl)-2,3-dimethyl-1-((2′-(5-oxo-4,5-dihydro-1,2,4-oxadiazol-3-yl)-[1,1′-biphenyl]-4-yl)methyl)-1H-indole-5-carboxamide], the IC50 on GST-PPARG-LBD (setting [2]) was determined as 40 nM. The same molecule came in with an EC50 in test [1] of 921 nM. In test [1] (setting [3]), the activation at 10 µM came out at 8%.

With `COc1cccc([C@@H](C)NC(=O)c2ccc3c(c2)c(C)c(C)n3Cc2ccc(-c3ccccc3C(=O)O)cc2)c1` [Example 161, (R)-4′-((5-((1-(3-methoxyphenyl)ethyl)carbamoyl)-2,3-dimethyl-1H-indol-1-yl)methyl)-[1,1′-biphenyl]-2-carboxylic acid], the IC50 on GST-PPARG-LBD (setting [2]) was found to be 2 nM. Further, in test [1] (setting [4]), the EC50 is 55 nM. Further, the activation at 10 µM in test [1] (setting [3]) amounted to 30%.

On to `Cc1c(C)n(Cc2ccc(-c3ccccc3C(=O)O)cc2)c2ccc(C(=O)N[C@@H](C)c3c(F)ccc(F)c3F)cc12` [Example 236, (S)-4′-((2,3-dimethyl-5-((1-(2,3,6-trifluorophenyl)ethyl)carbamoyl)-1H-indol-1-yl)methyl)-[1,1′-biphenyl]-2-carboxylic acid], for which the concentration for half-maximal inhibition (IC50) at GST-PPARG-LBD (setting [2]) came to 17 nM. In test [1] (setting [4]), the EC50 worked out at 293 nM. Besides, in test [1] (setting [5]), the activation at 10 µM came out at 20%.

Consider `Cc1c(C)n(Cc2ccc(-c3ccccc3C(=O)O)cc2)c2ccc(C(=O)N[C@H](C)c3ccccc3C(F)(F)F)cc12` [Example 207, (R)-4′-((2,3-dimethyl-5-((1-(2-(trifluoromethyl)phenyl)ethyl)carbamoyl)-1H-indol-1-yl)methyl)-[1,1′-biphenyl]-2-carboxylic acid], for which the IC50 on GST-PPARG-LBD (setting [2]) was found to be 1 nM. The EC50 in test [1] (setting [4]) was 629 nM. For the same molecule, the activation at 10 µM in test [1] (setting [3]) turned out to be 20%.

On to `Cc1c(C)n(Cc2ccc(-c3ccccc3C(=O)O)cc2)c2ccc(C(=O)N[C@@H](C)c3ccnc(Br)c3)cc12` [Example 267, (S)-4′-((5-(1-(2-bromopyridin-4-yl)ethylcarbamoyl)-2,3-dimethyl-1H-indol-1-yl)methyl)biphenyl-2-carboxylic acid], for which, on GST-PPARG-LBD (setting [2]), the IC50 was 98 nM. Besides, in test [1] (setting [4]), the EC50 was 2490 nM. Further, in test [1] (setting [3]), the activation at 10 µM came out at 40%.

Take `COc1ccc(F)cc1[C@H](C)NC(=O)c1ccc2c(c1)c(C)c(C)n2Cc1ccc(-c2ccccc2C(=O)O)cc1` [Example 206, (S)-4′-((5-((1-(5-fluoro-2-methoxyphenyl)ethyl)carbamoyl)-2,3-dimethyl-1H-indol-1-yl)methyl)-[1,1′-biphenyl]-2-carboxylic acid]: the half-maximal inhibitory concentration (IC50) at GST-PPARG-LBD (setting [2]) was found to be 26 nM. For the same molecule, the EC50 in test [1] (setting [4]) was found to be 405 nM. Further, in test [1] (setting [3]), the activation at 10 µM worked out at 20%.

On to `Cc1c(C)n(Cc2ccc(-c3ccccc3C(=O)O)cc2)c2ccc(C(=O)N[C@H](C)c3ccc(C(F)(F)F)c(F)c3)cc12` [Example 234, (R)-4′-((5-((1-(3-fluoro-4-(trifluoromethyl)phenyl)ethyl)carbamoyl)-2,3-dimethyl-1H-indol-1-yl)methyl)-[1,1′-biphenyl]-2-carboxylic acid], for which the IC50 at GST-PPARG-LBD (setting [2]) is < 1 nM. The 50% effective concentration (EC50) in test [1] (setting [4]) stood at 40 nM. Further, in test [1] (setting [3]), the activation at 10 µM stood at 50%.

For the molecule `Cc1c(C)n(Cc2ccc(-c3ccccc3C(=O)O)cc2)c2ccc(C(=O)N[C@H](C)c3cc(C(F)(F)F)ccc3C(F)(F)F)cc12` [Example 173, (R)-4′-((5-((1-(2,5-bis(trifluoromethyl)phenyl)ethyl)carbamoyl)-2,3-dimethyl-1H-indol-1-yl)methyl)-[1,1′-biphenyl]-2-carboxylic acid], the IC50 on GST-PPARG-LBD (setting [2]) is 4 nM. In addition, the EC50 in test [1] (setting [4]) was found to be 161 nM. The activation at 10 µM in test [1] (setting [3]) was 1%.

`Cc1c(C)n(Cc2ccc(-c3ccccc3C(=O)O)cc2)c2ccc(C(=O)N[C@@H](C)c3ccc(Br)cn3)cc12` [Example 260, (S)-4′-((5-((1-(5-bromopyridin-2-yl)ethyl)carbamoyl)-2,3-dimethyl-1H-indol-1-yl)methyl)-[1,1′-biphenyl]-2-carboxylic acid]: the IC50 on GST-PPARG-LBD (setting [2]) was found to be 2 nM. For the same molecule, the EC50 in test [1] (setting [4]) came out at 42 nM. Further, the activation at 10 µM in test [1] (setting [3]) came out at 25%.

Consider `Cc1c(C)n(Cc2ccc(-c3ccccc3C(=O)O)cc2)c2ccc(C(=O)N[C@@H](C)c3cccc(C4CC4)n3)cc12` [Example 274, (S)-4′-((5-(1-(6-cyclopropylpyridin-2-yl)ethylcarbamoyl)-2,3-dimethyl-1H-indol-1-yl)methyl)biphenyl-2-carboxylic acid], for which the IC50 on GST-PPARG-LBD (setting [6]) was 19 nM. For the same molecule, the concentration for a half-maximal effect (EC50) in test [1] (setting [7]) amounted to 159 nM. Also, the activation at 10 µM in test [1] (setting [3]) came to 30%.

In the case of `Cc1c(C)n(Cc2ccc(-c3ccccc3C(=O)O)cc2)c2ccc(C(=O)N[C@@H](C)c3ccc(C4CC4)cn3)cc12` [Example 261, (S)-4′-((5-((1-(5-cyclopropylpyridin-2-yl)ethyl)carbamoyl)-2,3-dimethyl-1H-indol-1-yl)methyl)-[1,1′-biphenyl]-2-carboxylic acid], on GST-PPARG-LBD (setting [2]), the IC50 amounted to 4 nM. In addition, the 50% effective concentration (EC50) in test [1] (setting [4]) is 50 nM. In test [1] (setting [3]), the activation at 10 µM came out at 30%.

Take `Cc1c(C)n(Cc2ccc(-c3ccccc3C(=O)O)cc2)c2ccc(C(=O)N[C@H](C)c3ccnc(C4CC4)c3)cc12` [Example 270, (R)-4′-((5-(1-(2-cyclopropylpyridin-4-yl)ethylcarbamoyl)-2,3-dimethyl-1H-indol-1-yl)methyl)biphenyl-2-carboxylic acid]: the IC50 on GST-PPARG-LBD (setting [2]) was found to be 15 nM. Further, the half-maximal effective concentration (EC50) in test [1] (setting [4]) was 686 nM. In addition, in test [1] (setting [3]), the activation at 10 µM was 40%.

With `COc1ccccc1[C@H](C)NC(=O)c1ccc2c(c1)c(C)c(C)n2Cc1ccc(-c2ccccc2C(=O)O)cc1` [Example 175, (S)-4′-((5-((1-(2-methoxyphenyl)ethyl)carbamoyl)-2,3-dimethyl-1H-indol-1-yl)methyl)-[1,1′-biphenyl]-2-carboxylic acid], the IC50 on GST-PPARG-LBD (setting [2]) worked out at 16 nM. The EC50 in test [1] (setting [4]) came to 360 nM. Besides, the activation at 10 µM in test [1] (setting [3]) is 20%.

Take `Cc1c(C)n(Cc2ccc(-c3ccccc3C(=O)O)cc2)c2ccc(C(=O)N[C@@H](C)c3cccc(F)c3F)cc12` [Example 229, (S)-4′-((5-((1-(2,3-difluorophenyl)ethyl)carbamoyl)-2,3-dimethyl-1H-indol-1-yl)methyl)-[1,1′-biphenyl]-2-carboxylic acid]: the IC50 at GST-PPARG-LBD (setting [2]) worked out at 9 nM. Moreover, the concentration for a half-maximal effect (EC50) in test [1] (setting [4]) was found to be 354 nM. In test [1] (setting [3]), the activation at 10 µM is 30%.

In the case of `COc1cc(F)cc([C@H](C)NC(=O)c2ccc3c(c2)c(C)c(C)n3Cc2ccc(-c3ccccc3C(=O)O)cc2)c1` [Example 146, (S)-4′-((5-((1-(3-fluoro-5-methoxyphenyl)ethyl)carbamoyl)-2,3-dimethyl-1H-indol-1-yl)methyl)-[1,1′-biphenyl]-2-carboxylic acid], the half-inhibitory concentration (IC50) at GST-PPARG-LBD (setting [2]) was 12 nM. In addition, the EC50 in test [1] (setting [4]) stood at 455 nM. Also, the activation at 10 µM in test [1] (setting [3]) was found to be 30%.

Consider `Cc1c(C)n(Cc2ccc(-c3ccccc3C(=O)O)cc2)c2ccc(C(=O)N[C@@H](C)c3ccc(F)cc3C(F)(F)F)cc12` [Example 227, (S)-4′-((5-((1-(4-fluoro-2-(trifluoromethyl)phenyl)ethyl)carbamoyl)-2,3-dimethyl-1H-indol-1-yl)methyl)-[1,1′-biphenyl]-2-carboxylic acid], for which the half-inhibitory concentration (IC50) at GST-PPARG-LBD (setting [2]) was determined as 36 nM. The EC50 in test [1] (setting [4]) was determined as 173 nM. Further, the activation at 10 µM in test [1] (setting [5]) came to 20%.

For `Cc1c(C)n(Cc2ccc(-c3ccccc3C(=O)O)cc2)c2ccc(C(=O)N[C@H](C)c3cccc(Cl)c3Cl)cc12` [Example 171, (R)-4′-((5-((1-(2,3-dichlorophenyl)ethyl)carbamoyl)-2,3-dimethyl-1H-indol-1-yl)methyl)-[1,1′-biphenyl]-2-carboxylic acid], the half-maximal inhibitory concentration (IC50) on GST-PPARG-LBD (setting [2]) was 5 nM. Further, the concentration giving a half-maximal response (EC50) in test [1] (setting [4]) was 388 nM. In test [1] (setting [5]), the activation at 10 µM stood at 10%.

For `Cc1c(C)n(Cc2ccc(-c3ccccc3C(=O)O)cc2)c2ccc(C(=O)N[C@H](C)c3ccnc4ccccc34)cc12` [Example 181, (R)-4′-((2,3-dimethyl-5-((1-(quinolin-4-yl)ethyl)carbamoyl)-1H-indol-1-yl)methyl)-[1,1′-biphenyl]-2-carboxylic acid], at GST-PPARG-LBD (setting [2]), the 50% inhibitory concentration (IC50) stood at 512 nM. In addition, the EC50 in test [1] (setting [4]) is 5240 nM. The activation at 10 µM in test [1] (setting [3]) is 40%.

With `Cc1c(C)n(Cc2ccc(-c3ccccc3C(=O)O)cc2)c2ccc(C(=O)N[C@@H](C)c3cccc(C(F)(F)F)c3Cl)cc12` [Example 230, (S)-4′-((5-((1-(2-Chloro-3-(trifluoromethyl)phenyl)ethyl)carbamoyl)-2,3-dimethyl-1H-indol-1-yl)methyl)-[1,1′-biphenyl]-2-carboxylic acid], the concentration for half-maximal inhibition (IC50) on GST-PPARG-LBD (setting [2]) was determined as 103 nM. In addition, the EC50 in test [1] (setting [4]) worked out at 709 nM. The activation at 10 µM in test [1] (setting [5]) came out at 20%.

With `Cc1c(C)n(Cc2ccc(-c3ccccc3C(=O)O)cc2)c2ccc(C(=O)N[C@@H](C)c3ccc(Cl)cc3Cl)cc12` [Example 303, (S)-4′-((5-((1-(2,4-Dichlorophenyl)ethyl)carbamoyl)-2,3-dimethyl-1H-indol-1-yl)methyl)-[1,1′-biphenyl]-2-carboxylic acid], on GST-PPARG-LBD (setting [6]), the IC50 worked out at 4 nM. In test [1] (setting [7]), the EC50 was 219 nM. For the same molecule, in test [1] (setting [3]), the activation at 10 µM was found to be 25%.

Turning to `Cc1c(C)n(Cc2ccc(-c3ccccc3C(=O)O)cc2)c2ccc(C(=O)NC(C)(C)c3ccc(Br)cc3)cc12` [Example 180, 4′-((5-((2-(4-bromophenyl)propan-2-yl)carbamoyl)-2,3-dimethyl-1H-indol-1-yl)methyl)-[1,1′-biphenyl]-2-carboxylic acid], the concentration for half-maximal inhibition (IC50) on GST-PPARG-LBD (setting [2]) worked out at 1 nM. For the same molecule, the EC50 in test [1] (setting [4]) was 119 nM. The activation at 10 µM in test [1] (setting [5]) was 60%.

In general, IC50 refers to the concentration that inhibits the measured activity by half. In general, EC50 refers to the concentration at which the effect is half-maximal.

These data come from US8957093B2, “N-biphenylmethylindole modulators of PPARG” (The Scripps Research Institute, priority 2011, dated 2015).
